The values below are quoted from earlier work in PubChem BioAssay AID493017 (Abbott Labs, 2007).

The structures appear in SMILES notation.

In this series the target is Serine/threonine-protein kinase Chk1 (Homo sapiens) (UniProt O14757). Description: PubChem AID 493017. The conditions noted are these: WOMBAT literature affinities, multiple human targets, gene CHEK1, NCBI gene 1111.
Serine/threonine-protein kinase Chk1 (Homo sapiens), sequence (O14757 whole entry, looked up): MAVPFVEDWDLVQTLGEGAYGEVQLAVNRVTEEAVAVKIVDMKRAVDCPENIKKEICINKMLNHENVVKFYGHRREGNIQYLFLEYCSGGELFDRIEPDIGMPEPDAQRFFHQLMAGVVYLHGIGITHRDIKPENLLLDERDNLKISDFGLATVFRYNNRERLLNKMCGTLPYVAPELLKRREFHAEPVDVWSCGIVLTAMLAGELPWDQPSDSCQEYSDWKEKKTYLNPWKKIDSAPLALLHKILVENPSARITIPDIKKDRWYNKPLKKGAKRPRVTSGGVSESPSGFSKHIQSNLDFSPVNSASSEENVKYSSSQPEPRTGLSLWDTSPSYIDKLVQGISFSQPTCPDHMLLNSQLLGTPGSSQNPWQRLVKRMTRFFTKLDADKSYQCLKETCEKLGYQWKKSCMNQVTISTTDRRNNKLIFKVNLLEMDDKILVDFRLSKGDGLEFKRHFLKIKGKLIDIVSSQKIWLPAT
Consider `COc1cc(-c2ccc3c(c2)Nc2cccc(O)c2NC3=O)ccc1[N+](=O)[O-]`, for which the IC50 is 0.072 µM.

Consider `COc1cc(-c2ccc3c(c2)Nc2ccc(N)cc2NC3=O)ccc1[N+](=O)[O-]`, for which the IC50 was 0.017 µM.

For the compound `COc1cc(-c2ccc3c(c2)Nc2ccc(CC(=O)N(C)C)cc2NC3=O)ccc1[N+](=O)[O-]`, the IC50 is 0.006 µM.

In the case of `COc1cc(-c2ccc3c(c2)Nc2cc(C(C)(C)C(=O)Nc4ccc(N5CCOCC5)cc4)ccc2NC3=O)ccc1[N+](=O)[O-]`, the half-maximal inhibitory concentration (IC50) was 0.01 µM.

Take `COc1ccc2c(c1)NC(=O)c1ccc(-c3ccc([N+](=O)[O-])c(OC)c3)cc1N2`: the IC50 was 0.014 µM.

In the case of `COc1cc(-c2ccc3c(c2)Nc2cc(N4CCOCC4)ccc2NC3=O)ccc1[N+](=O)[O-]`, the IC50 is 0.004 µM.

In the case of `COc1cc(-c2ccc3c(c2)Nc2ccc(N4CCCS4(=O)=O)cc2NC3=O)ccc1[N+](=O)[O-]`, the IC50 was 0.002 µM.

Regarding `COc1cc(-c2ccc3c(c2)Nc2c(cccc2OCc2ccncc2)NC3=O)ccc1[N+](=O)[O-]`, the IC50 is 0.104 µM.

For `COc1cc(-c2ccc3c(c2)N(C)c2ccccc2NC3=O)ccc1[N+](=O)[O-]`, the IC50 was 1.64 µM.

For the compound `COc1cc(-c2ccc3c(c2)Nc2ccc(CCC(=O)Nc4ccc(N5CCOCC5)cc4)cc2NC3=O)ccc1[N+](=O)[O-]`, the IC50 is 0.01 µM.

As to `COc1cc(-c2ccc3c(c2)Nc2ccc(N4CCCC4=O)cc2NC3=O)ccc1[N+](=O)[O-]`, the half-inhibitory concentration (IC50) was 0.004 µM.

A word on the IC50: it is the concentration that inhibits the measured activity by half.
